According to patent US5849587A, “Method of inhibiting viral replication in eukaryotic cells and of inducing apoptosis of virally-infected cells” (Cornell Research Foundation, Inc., priority 1995, dated 1998):
Entries after “also recorded” stand apart in the source; their conditions may differ.

Experiments:
cellular protein TNF-α = assay: TNF-α biosynthesis and secretion (ELISA) in PMA-induced ACH-2 cells; assay type: cell-based, human; conditions: 200 μM, PMA-induced ACH-2, FIG. 10
[1] = test system: HIV-1 p24 antigen, H9 cells; assay: p24 antigen levels (ELISA) in chronically HIV-1 infected H9 cells; assay type: cell-based; conditions: 48 hours, FIGS. 8 and 9
Experimental: (§1) 1. Dose-dependency of antiviral effect. Cells of the human T lymphocyte line H9, chronically and productively infected with the Lai (IIIb) strain of HIV-1, were harvested during logarithmic proliferation, extensively washed to remove viral antigens and infectious particles, and re-suspendedin serum-supplemented and antibiotic-containing RPMI 1640 medium at a density of 2×10^5 cells/ml. After incubation with increasing concentrations of mimosine or HK-1 for 48 hours, the cells were harvested, lysed, and used to determine the intracellular amount of the p24 antigen derived from the p55 Gag polyprotein, using a commercially available, p24-specific ELISA method (Coulter, Hialeah, Fla.); the same method was also used to quantify the extracellular level of p24 antigen that had accumulated in the supernatant during incubation with the hypusine inhibitors. In addition, titration assays were performed using CEM target cells to measure the infectivity of virus produced in the absence and presence of the hypusine inhibitors using the procedure of Prince et al., Proc. Natl. Acad. Sci. USA 85, 6944-6948 (1988), which is hereby incorporated by reference. The half-maximal tissue culture infectious doses (TCID50) of HIV-1 per ml of test sample were calculated by the Spearman-Karber method.

[2] = test system: HIV-1 infected ACH-2 cells; assay: Flow cytometry of genomic DNA 3'-ends (apoptosis), HIV-1 infected cells; assay type: cell-based, human; conditions: for fragmentation of genomic DNA / number of DNA 3'-ends, ACH-2: FIG. 13
Experimental: FIGS. 13A-F show the flowcytometrically determined distribution of the number of fluorescently labeled 3'-ends in the genomic DNA of HIV-1 producing ACH-2 cells ("ACH-2") and their uninfected parent cell line CEM ("CEM"), both receiving no treatment ("NT") or treatment for 18 hours with either 200 μM mimosine ("MIM") or 200 μM HK-1 ("HK1"). […] This is the hallmark of irreversible auto-destruction of a cell's genetic library.
FIGS. 14A-H show the flowcytometrically determined distribution of the number of fluorescently labeled 3'-ends in the genomic DNA of HIV-1 producing ACH-2 cells ("ACH-2") and of their uninfected parent cell line CEM ("CEM"), both receiving no treatment ("NT") or treatment for 18 hours with 200 μM mimosine ("MIM"), followed by inhibitor withdrawal and reincubation in fresh medium for 2 hours.
ACH-2 cells were incubated with hypusine inhibitors (mimosine, HK-1) and induced with PMA as outlined in Example II A, except that the duration of exposure to inhibitor was extended to 18-21 hours and that cells were labeled as detailed in Example I B. Half of the cells were then harvested and processed for detection of apoptosis, while the other half was washed free of inhibitors and re-incubated in fresh medium for 2-4 hours, followed by harvesting and processing for detection of […] apoptosis. Using the same protocol, cultures of the parent CEM cell line were incubated in parallel. For assessment of apoptosis, cell viability was measured by exclusion of the dye trypan blue, by retention of the ^3 H-spermidine-derived intracellular radioactivity incorporated into the obligatory intracellular protein eIF-5A, and by direct fluorescence detection of the intemucleosomal degradation of genomic DNA. Such irreversible genome degradation signals the activation of pre-programmed suicide mechanisms within any cell, which is the hallmark of apoptosis, and inescapably results in cell death [Compton, Cancer Metast. 11, 105-119 (1992), which is hereby incorporated by reference]. For the latter method, a commercially available kit was used (Oncor, Gaithersburg, Md.). Flow cytometric analysis of apoptotic cells was performed in accord with standard procedures.

HIV-1 = assay: Titration assay of infectivity of virus (TCID50) produced by infected H9 cells, CEM target cells; assay type: cell-based; conditions: 48 hours, increasing concentrations
Experimental: as §1

[3] = test system: viral p24 antigen, ACH-2 cells; assay: p24 antigen levels (ELISA) in PMA-induced ACH-2 cells; assay type: cell-based, HIV-1; conditions: 200 μM, PMA-induced ACH-2, FIG. 10
Experimental: 142, 431-438 (1989), which is hereby incorporated by reference]. However, vigorous HIV-1 production by ACH-2 cells is induced by addition of the phorbol ester PMA [Pomerantz et al., Cell 61, 1271-1276 (1990) and Michael et al., J. Virol 65, 1291-1303 (1991), which are hereby incorporated by reference]. This system was selected for these experiments. Logarithmically growing ACH-2 cells, suspended at a concentration of 3×10^5 /ml, were incubated with the hypusine inhibitors mimosine and HK-1 at a final concentration of 200 μM. After 8 hours, viral replication was activated by addition of PMA to these cells and to untreated controls (100 ng/ml final PMA concentration). […] An aliquot of each fraction was analyzed by slot blotting, using the pXC-1 genomic ribosomal DNA probe from rat containing the 18S rRNA coding sequence [Rimarachin, Szabo et al., In Vitro 28A, 705-707 (1992), which is hereby incorporated by reference], to determine the location within the gradient of 18S rRNA, i.e., the distribution of polysomes vs. monosomes. […] Following electrophoresis, the radio-labeled PCR products were visualized by autoradiography according to routine techniques, and the band intensities quantified by densitometric analysis and expressed relative to total product per gradient. […]

Structure (SMILES): Cc1c(O)c(=O)ccn1C [HK-1, 1,2-dimethyl-3-hydroxypyrid-4-one]
- TNF-α biosynthesis and secretion (cellular protein TNF-α): absence of such a suppressive effect
- intra- and extracellular p24 antigen levels [1]: inhibitory effect on the extracellular (FIG. 9A) and intracellular (FIG. 9B) levels of the p24 antigen
- fragmentation of genomic DNA / number of DNA 3'-ends, ACH-2 ([2]; 200 μM, 18 hours): triggered fragmentation of the genomic DNA; also recorded: increase of the number of 3'-ends in their DNA
- production of infectious HIV-1 particles / infectivity of virus (HIV-1): dose-dependently suppressive effect
- viral p24 antigen in cells and supernatant [3]: suppressive effect

Structure (SMILES): N[C@@H](Cn1ccc(=O)c(O)c1)C(=O)O [L-Mimosine]
- TNF-α biosynthesis and secretion (cellular protein TNF-α): absence of such a suppressive effect
- intra- and extracellular p24 antigen levels [1]: inhibitory effect on the intracellular (FIG. 8A) and extracellular (FIG. 8B) levels of the p24 antigen
- DNA fragmentation after withdrawal, ACH-2 ([2]; 200 μM 18 hours, then 2 hours after withdrawal, FIG. 14): this population did not decrease, but rather became the predominant one; also recorded: Within the 2 hours of release, this shift increased markedly
- fragmentation of genomic DNA / number of DNA 3'-ends, ACH-2 ([2]; 200 μM, 18 hours): triggered fragmentation of the genomic DNA; also recorded: increase of the number of 3'-ends in their DNA
- second population (higher amount of 3'-ends) position, ACH-2 ([2]; 200 μM, 18 hours, FIG. 14): ~210 channel
- average fluorescence peak position, ACH-2 ([2]; 200 μM, 18 hours, FIG. 14, control around channel 100): 140 channel
- production of infectious HIV-1 particles / infectivity of virus (HIV-1): dose-dependently suppressive effect
- viral p24 antigen in cells and supernatant [3]: suppressive effect
